Values of other authors as cited in patent US20260345512A1, “TRANSDERMAL DELIVERY OF DEXTROMETHORPHAN” (SHINKEI THERAPEUTICS, INC., priority 2022, published 2026).

Columns and labels:
[1] = dextromethorphan alone
[2] = without enhancer

SMILES | adverse reactions reported with use of the individual component [1] | transdermal delivery rate relative to beta estradiol [2]
COc1ccc2c(c1)[C@]13CCCC[C@@H]1[C@H](C2)N(C)CC3 [dextromethorphan] | drowsiness, dizziness, nervousness or restlessness, nausea, vomiting, and stomach pain | –
C[C@]12CC[C@H]3[C@@H](CCC4=CC(=O)CC[C@@]43C)[C@@H]1CC[C@@H]2O [testosterone] | – | three orders of magnitude higher
